“And” between values parts separate entries of the source, which are not always exact repeats. Equal values may be shown once. Marks after values point to notes of the source that are not given here.
Tests used:
broiler chickens = experiment: 42-day broiler floor pen trial with natural colibacillosis challenge; format: in vivo, chicken; settings: for Day 42 Feed/Gain / Day 42 Gain/Bird / Day 42 Mortality (%) / Day 42 Adjusted Feed/Gain: MON 99 ppm, BT1583 12 ppm, BMD 55 ppm; for Day 42 Feed/Gain / Day 42 Gain/Bird: alone or combined; for Day 42 Mortality (%): acute and chronic colibacillosis; for Day 42 Adjusted Feed/Gain: adjusted for weight of mortality
Experimental: A broiler floor pen trial to compare the performance of a new anti-microbial designated for this project as BT1583 alone and in combination with the widely used coccidiostat monensin (MON) to MON fed alone, MON in combination with the also widely used antimicrobial Bacitracin MD (BMD) and BMD alone.
The following levels of each treatment were evaluated:
The study design included 10 pens per treatment and 40 birds per pen housed on day of hatch. Two basal corn-soy based diets of decreasing protein (approximately 23 to 20%) and increasing metabolizable energy (approximately 1400 to 1455 kcal/lb) were used from Day 0 to 21 (starter feed) and Days 22 to 42 (grower feed), respectively. Treatment premixes were measured and blended into diets at required levels. Between days 0 and 21 mortality was less than 1% with all birds growing optimally and of high health across all groups.
Beginning on study day 22, the study director modulated house temperature and air flow to mimic industry conditions conducive to outbreaks of colibacillosis within naïve broiler flocks. This was done to stimulate a natural challenge for this study. Mortality climbed to a house average of approximately 10% by Day 42. A majority of these deaths occurred in groups not receiving BT1583 or MON. Lesions were consistent with those of colibacillosis (air sac, pneumonia, peri-hepatitis, peri-carditis and extreme morbidity). All mortality was documented (weight at death and post-mortem observations). All birds and feeds were weighed at 42 days. All remaining birds were euthanized on Day 42 by asphyxiation with the carcasses submitted for rendering.
The following variables were tested: Response Variables: Gain Per Bird, Feed Per Gain, Mortality (%), Adjusted Feed Per Gain. F test from One Way ANOVA with one blocking factor=location, at Day 42 using 0.05 level of significance.
All Response Variables: LSD T-test procedure for pair-wise comparisons with Type 1 error of means when ANOVA F ratio is significant, overall significance level of 0.05 used. Lines below means (see Table 30, below) indicate groups with insignificant differences in means.
Adjusted Feed/Gain: The total weight of mortality in each pen was added to the final live weight, that value reduced by subtracting the initial weight and then dividing that value into the Total feed consumed to calculate the Adjusted Feed/Gain.

straight run broilers = experiment: Growth and feed conversion of 3-wk old broilers in batteries, pelleted starter feed (Studies 3-1 and 3-2); format: in vivo, chicken; settings: BT1583 12 ppm, BMD 50 ppm, COB 90 ppm, alone or combined, pelleted feed
Description: Eight (8) study repetitions per treatment were used, again with 4 birds per pen.

[1] = target: A-domain of BT NRPS Module 8 (Bt8A) (Brevibacillus texasporus, UniProt Q2VQ14); experiment: ATP-PPi exchange assay, Module 8 A-domain; format: biochemical; settings: for relative activation (highest activity = 100%): 0.5 mM amino acid
Sequence of A-domain of BT NRPS Module 8 (Bt8A) (Q2VQ14 entry or part of it): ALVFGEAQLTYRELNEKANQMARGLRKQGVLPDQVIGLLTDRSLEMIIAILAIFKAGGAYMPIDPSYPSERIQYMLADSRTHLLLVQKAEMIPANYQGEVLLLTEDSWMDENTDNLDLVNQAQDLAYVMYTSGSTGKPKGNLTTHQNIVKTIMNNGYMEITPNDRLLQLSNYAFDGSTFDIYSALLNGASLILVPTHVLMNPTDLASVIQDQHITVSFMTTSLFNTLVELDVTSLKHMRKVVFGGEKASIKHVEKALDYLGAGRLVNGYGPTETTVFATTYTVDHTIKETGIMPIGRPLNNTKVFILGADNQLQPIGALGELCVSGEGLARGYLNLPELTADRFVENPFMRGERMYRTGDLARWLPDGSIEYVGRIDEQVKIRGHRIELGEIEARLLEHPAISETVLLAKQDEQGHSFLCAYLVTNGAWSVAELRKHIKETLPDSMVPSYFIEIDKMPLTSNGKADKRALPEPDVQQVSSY
Experimental: (§1) Cloning, overexpression, and purification of His10-tagged BT A-domain proteins. DNA fragments encoding the A-domains of the BT NRPS Modules 8, 5, 7, 4 and 2 (Bt8A, 8t5A, Bt7A, Bt4A and Bt2A) were PCR-amplified and the PCR products were inserted into the His10-tag recombinant protein expression vector pET16b (Novagen). The A-domain borders were determined as defined by (Konz, et al., 1999). The expression constructs were transformed into the E. coli BL21-AI strain (Invitrogen). Transformants were grown in L-broth at 37° C. to an A600 of 0.6 and then induced with 1 mM IPTG (isopropyl-β-D-thiogalactopyranoside) plus 0.2% L-arabinose. The cells were allowed to grow for two additional hours at 30° C. before being harvested. Purification of the His10-tag recombinant proteins was achieved using the TALON metal affinity resins (BD Biosciences) under conditions recommended in the manual with modifications. Briefly, the E. coli cells were broken by sonication. Cell lysates were cleared by centrifugation at 25,000×g for one hour. His-tagged recombinant proteins were then incubated with the TALON resin, washed, and eluted with 500 mM imidazole. Eluted proteins were dialyzed against a buffer (50 mM HEPES, pH 8.0, 100 mM sodium chloride, 10 mM magnesium chloride, and 1 mM EDTA) and then analyzed with SDS PAGE plus Coomassie Blue staining. […] Concentrations of the purified proteins were determined by using the calculated molar extinction coefficient for the A280.
(§2) ATP-PPi exchange assay. ATP-PPi exchange assays were performed to determine the substrate specificity of an A-domain. ATP-PPi exchanges were assayed as previously described (Stachelhaus, et al., 1998) with minor modifications. The assay mixture contained 50 mM HEPES (pH 8.0), 100 mM NaCl, 10 mM MgCl2, 2 mM ATP, 0.5 mM amino acid, 0.05 mM PPi, 0.15 μCi tetrasodium [^32P]pyrophosphate. Exchange was initiated by addition of purified recombinant A-domain proteins to a total volume of 0.1 ml. The protein concentrations were 0.2 μM for Module 4 and Module 5 A-domains while 2 μM for Module 7 and Module 8 A-domains. […] The charcoal/water suspension was added to a scintillation vial containing 5.0 ml of scintillation fluid, and the bound radioactivity was determined by liquid scintillation counting. […]
(§3) Since a purified recombinant A-domain of an NRPS module can selectively and efficiently activate the cognate amino acid substrate of the NRPS module in an ATP-PPi exchange assay (Konz, et al., 1999; Mootz & Marahiel, 1997), ATP-PPi exchange assays have been used to experimentally establish NRPS module specificities and novel NRPS codons. […] A-domain specificities were determined in ATP-PPi exchange and aa Km assays (see Methods and Materials), and the results are shown in FIG. 5. […]

[2] = target: A-domain of BT NRPS Module 7 (Bt7A) (Brevibacillus texasporus, UniProt Q2VQ15); experiment: ATP-PPi exchange assay, Module 7 A-domain; format: biochemical; settings: 0.5 mM amino acid
Sequence of A-domain of BT NRPS Module 7 (Bt7A) (Q2VQ15 entry or part of it): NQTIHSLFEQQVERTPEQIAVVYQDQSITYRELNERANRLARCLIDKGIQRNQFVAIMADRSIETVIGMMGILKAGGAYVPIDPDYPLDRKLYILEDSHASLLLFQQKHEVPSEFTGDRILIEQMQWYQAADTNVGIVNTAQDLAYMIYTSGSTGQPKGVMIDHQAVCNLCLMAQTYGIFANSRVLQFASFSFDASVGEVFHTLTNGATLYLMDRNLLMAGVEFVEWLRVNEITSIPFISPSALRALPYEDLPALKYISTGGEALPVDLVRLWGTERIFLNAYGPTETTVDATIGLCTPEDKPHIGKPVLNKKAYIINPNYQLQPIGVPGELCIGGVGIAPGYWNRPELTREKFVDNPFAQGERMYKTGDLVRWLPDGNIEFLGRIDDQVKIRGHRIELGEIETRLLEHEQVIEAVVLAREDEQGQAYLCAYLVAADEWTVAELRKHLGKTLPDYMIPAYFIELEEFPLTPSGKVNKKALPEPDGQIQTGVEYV

[3] = test system: A-domain of BT NRPS Module 2 (Bt2A); experiment: ATP-PPi exchange assay, Module 2 A-domain; format: biochemical, Brevibacillus texasporus; settings: 0.5 mM amino acid
Experimental: as §1
(§4) ATP-PPi exchange assay. ATP-PPi exchange assays were performed to determine the substrate specificity of an A-domain. ATP-PPi exchanges were assayed as previously described (Stachelhaus, et al., 1998) with minor modifications. The assay mixture contained 50 mM HEPES (pH 8.0), 100 mM NaCl, 10 mM MgCl2, 2 mM ATP, 0.5 mM amino acid, 0.05 mM PPi, 0.15 μCi tetrasodium [^32P]pyrophosphate. Exchange was initiated by addition of purified recombinant A-domain proteins to a total volume of 0.1 ml. The protein concentrations were 0.2 μM for Module 4 and Module 5 A-domains while 2 μM for Module 7 and Module 8 A-domains. After incubation at 37° C. for 15 min, the reaction was stopped by addition of 0.5 ml of Terminaton Mix (100 mM tetrasodium pyrophosphate, 3.5% HClO4, and 1.6% [w/v] activated charcoal). The charcoal was pelleted by centrifugation, washed first with 40 mM pyrophosphate plus 1.4% perchloric acid and then with water, and was re-suspended in 0.5 ml of water. The charcoal/water suspension was added to a scintillation vial containing 5.0 ml of scintillation fluid, and the bound radioactivity was determined by liquid scintillation counting. The apparent Km values were determined with substrate concentrations ranging from 0.1 to 10 mM.
(§5) Since a purified recombinant A-domain of an NRPS module can selectively and efficiently activate the cognate amino acid substrate of the NRPS module in an ATP-PPi exchange assay (Konz, et al., 1999; Mootz & Marahiel, 1997), ATP-PPi exchange assays have been used to experimentally establish NRPS module specificities and novel NRPS codons. Recombinant A-domains of Modules 8, 5, 7, 4 and 2 of the BT NRPS were produced and purified as described in Methods and Materials. Almost completely soluble recombinant A-domain proteins were obtained. A-domain specificities were determined in ATP-PPi exchange and aa Km assays (see Methods and Materials), and the results are shown in FIG. 5. […]

[4] = target: A-domain of BT NRPS Module 4 (Bt4A) (Brevibacillus texasporus, UniProt Q2VQ15); experiment: ATP-PPi exchange assay, Module 4 A-domain; format: biochemical; settings: for relative activation (highest activity = 100%): 0.5 mM amino acid
Sequence of A-domain of BT NRPS Module 4 (Bt4A) (Q2VQ15 entry or part of it): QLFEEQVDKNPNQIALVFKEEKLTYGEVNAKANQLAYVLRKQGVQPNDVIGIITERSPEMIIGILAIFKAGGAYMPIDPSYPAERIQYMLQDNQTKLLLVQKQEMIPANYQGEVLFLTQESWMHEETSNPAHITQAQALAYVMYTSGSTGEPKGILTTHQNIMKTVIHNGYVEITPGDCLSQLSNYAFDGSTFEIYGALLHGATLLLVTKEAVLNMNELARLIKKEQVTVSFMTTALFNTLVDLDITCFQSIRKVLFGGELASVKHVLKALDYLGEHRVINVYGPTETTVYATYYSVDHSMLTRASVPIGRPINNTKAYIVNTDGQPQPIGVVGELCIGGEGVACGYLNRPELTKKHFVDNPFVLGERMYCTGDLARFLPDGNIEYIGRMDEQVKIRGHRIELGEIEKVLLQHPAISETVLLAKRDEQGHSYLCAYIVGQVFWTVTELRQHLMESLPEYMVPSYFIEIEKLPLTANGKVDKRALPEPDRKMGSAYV
Experimental: as §1, §2, §3

[5] = target: A-domain of BT NRPS Module 5 (Brevibacillus texasporus, UniProt Q2VQ15); experiment: ATP-PPi exchange assay, Module 5 A-domain; format: biochemical; settings: for relative activation (highest activity = 100%): 0.5 mM amino acid; for Km: read-out: apparent Km
Sequence of A-domain of BT NRPS Module 5 (Q2VQ15 entry or part of it): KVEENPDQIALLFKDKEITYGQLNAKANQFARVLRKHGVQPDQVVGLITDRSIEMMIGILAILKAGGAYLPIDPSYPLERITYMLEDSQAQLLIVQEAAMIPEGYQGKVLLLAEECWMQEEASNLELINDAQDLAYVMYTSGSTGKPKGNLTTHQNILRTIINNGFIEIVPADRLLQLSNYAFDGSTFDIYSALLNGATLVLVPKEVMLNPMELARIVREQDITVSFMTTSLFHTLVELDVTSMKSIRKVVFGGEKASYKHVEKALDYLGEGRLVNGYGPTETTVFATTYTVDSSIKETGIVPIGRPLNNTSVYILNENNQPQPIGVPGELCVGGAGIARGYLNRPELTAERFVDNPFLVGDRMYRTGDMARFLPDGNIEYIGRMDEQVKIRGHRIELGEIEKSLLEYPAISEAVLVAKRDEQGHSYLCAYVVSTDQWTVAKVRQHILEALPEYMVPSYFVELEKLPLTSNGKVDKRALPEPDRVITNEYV
Experimental: as §1, §4, §5

Bacitracin MD [BMD, reference compound]
Day 42 Feed/Gain (broiler chickens): 2.147^c | Day 42 Gain/Bird (broiler chickens): 3.971^cd lb | Day 42 Mortality (%) (broiler chickens): 18.25^bc % | Day 42 Adjusted Feed/Gain (broiler chickens): 1.838^bc | 20-day cumulative feed conversion rate, Mean (straight run broilers): 1.3397 | 21-day cumulative feed conversion rate, Estimated Marginal Mean (straight run broilers): 1.340 | 21-day cumulative weight gain, Mean (straight run broilers): 832.9688 and 832.969

CC[C@@]1([C@@H]2O[C@@H]([C@H]3O[C@@](O)(CO)[C@H](C)C[C@@H]3C)C[C@@H]2C)CC[C@H]([C@]2(C)CC[C@]3(C[C@H](O)[C@@H](C)[C@@H]([C@@H](C)[C@@H](OC)[C@H](C)C(=O)O)O3)O2)O1 [Monensin, monensin]
Day 42 Feed/Gain (broiler chickens): 1.854^b | Day 42 Gain/Bird (broiler chickens): 4.111^bcd lb | Day 42 Mortality (%) (broiler chickens): 8.00^a % | Day 42 Adjusted Feed/Gain (broiler chickens): 1.761^b | mortality rate compared with non-supplemented controls (broiler chickens; alone or in combination): lower mortality rates | 20-day cumulative feed conversion rate, Mean (straight run broilers): 1.3712 | 21-day cumulative feed conversion rate, Estimated Marginal Mean (straight run broilers): 1.371 | 21-day cumulative weight gain, Mean (straight run broilers; listed as COB): 792.8438 and 792.844

NCCCC[C@H](N)C(=O)O [L-Lys]
relative activation (highest activity = 100%) [1]: 10% | activation [2]: only amino acid that activated

CSCC[C@H](N)C(=O)O [L-Met]
relative activation (highest activity = 100%) [3]: 100%

CC(C)[C@H](N)C(=O)O [L-Val]
relative activation (highest activity = 100%) [4]: 9% | relative activation (highest activity = 100%) [5]: 100% | Km [5]: 1110 µM | relative activation (highest activity = 100%) [3]: 67% | relative activation (highest activity = 100%) [1]: 100% | Km ([1]; read-out: apparent Km): 2750 µM

N[C@@H](Cc1ccccc1)C(=O)O [L-Phe]
relative activation (highest activity = 100%) [3]: 3.5%

CC(C)C[C@H](N)C(=O)O [L-Leu]
relative activation (highest activity = 100%) [4]: 7% | relative activation (highest activity = 100%) [5]: 17% | relative activation (highest activity = 100%) [3]: 98%

CC[C@H](C)[C@H](N)C(=O)O [L-Ile]
relative activation (highest activity = 100%) [4]: 100% | Km ([4]; read-out: apparent Km): 500 µM | relative activation (highest activity = 100%) [5]: 23% | Km [5]: 2780 µM | relative activation (highest activity = 100%) [3]: 19% | relative activation (highest activity = 100%) [1]: 4%

From patent US20090175981A1, “COMPOSITIONS, METHODS AND USES FOR A NOVEL FAMILY OF PEPTIDES” (priority 2004, published 2009)
